This is an account of results in patent US20190358264A1, “METHODS OF TREATING DISEASES ASSOCIATED WITH ILC2 CELLS” (Limm Therapeutics, SA, priority 2016, published 2019).

In this test the test system is ILC2s. Nature of the test: In vitro activation of purified ILC2s, type 2 cytokine protein by intracellular staining. It counts as cell-based, mouse. The protocol: FIGS. 10a-10d: FIG. 10a, Ki67 expression in intestinal ILC2s after an overnight in vitro stimulation with NmU23 alone (100 ng/mL, Phoenix Pharmaceutical) or NmU23 together with the survival cytokines Interleukin (IL)-2 and/or IL-7 (10 ng/mL). FIG. 10b, Ki67 expression in intestine ILC2 after in vivo administration of NmU23 (4 g/day during 2 days). n=5. FIG. 10c, ILC2-derived type 2 cytokines (IL-5, IL-13 and Amphiregulin (Areg)) in sorted intestine ILC2 after an overnight stimulation with NmU23, mouse recombinant IL-25 or IL-33 (R&D) (10, 50 and 100 ng/mL). Negative control: unstimulated ILC2, Positive control: ILC2 activated with phorbol 12-myristate 13-acetate (PMA, 50 ng/ml) plus ionomycin (500 ng/ml). n=3. FIG. 10d, Dot plots representative of the cytokine production with increasing dose of NmU23, rIL-25 and rIL-33. *P<0.05; **P<0.01; ***P<0.001; ****P<0.0001; ns not significant.
For in vitro experiments, purified lung and small intestine lamina propria ILC2s were FBS starved for 2 hours prior to stimulation and cultured in complete RPMI (supplemented with 10% foetal bovine serum (FBS), 1% hepes, sodium pyruvate, glutamine, streptomycin and penicillin) at 37° C. For mRNA analysis, ILC2s were stimulated overnight with recombinant mouse Neuromedin U 23 peptide (NmU23, 100 ng/mL; Phoenix pharmaceuticals). Both NmU23-stimulated and control ILC2s were cultured in the presence of IL-2 and IL-7 (10 ng/mL; Peprotech). ILC2s were lysed using RLT buffer (Qiagen). For cytokine protein analysis, ILC2s were incubated exclusively with brefeldin A (eBioscience) for 12 hours prior to intracellular staining. For in vivo experiments, B6 mice were injected intraperitoneal with NmU23 peptide (2 g/day) during Nippostrongylus brasiliensis infection or with a single dose of NmU23 (20 μg) and analyzed after 8 hours. Control mice were treated with PBS alone.
Intracellular staining was performed using IC fixation/permeabilization kit (eBioscience). Flow cytometry analysis and cell sorting were performed using BD LSRFORTESSA and BD FACSAria flow cytometers (BD Biosciences). […]

Regarding “Neuromedin U (FKAEYQSPSVGQSKGYFLFRPRN) [NmU]”, the “up-regulation of innate type 2 cytokines relative to PMA-ionomycin positive control” value (PMA 50 ng/ml plus ionomycin 500 ng/ml, sorted intestine ILC2, overnight) is given as “comparable to the effects observed with PMA-ionomycin activation”. Further, for the setting “sorted intestine ILC2, overnight, 10, 50 and 100 ng/mL (FIGS. 10c,10d)”, the “expression of innate IL-5 and IL-13 compared to IL-33 and IL-25” value was “prompt, and very robust expression”.
